Laboratory results from patent US10562891B2, “Quinazolinones as PARP14 inhibitors” (Ribon Therapeutics Inc., priority 2017, dated 2020).
Counter-ions that a name gives are not always drawn.

Each compound was assayed against catalytic domain of human PARP14 (Homo sapiens (Human), UniProt Q460N5) (assay: Enzymatic assay for inhibition of PARP14 (DELFIA, auto-modification with biotin-NAD)). Conditions: auto-modification of PARP14 by biotin-NAD, 50 nM PARP14, 3 μM biotin-NAD.
Format: biochemical
Method: An N-terminal His-TEV fusion tag was used to purify the protein from cell lysates. The His-TEV tag was left on the protein for use in the enzymatic assay.
Enzymatic inhibition of PARP14 was measured using a dissociation-enhanced lanthanide fluorescence immunoassay (DELFIA) monitoring the auto-modification of PARP14 by biotinylated nicotinamide adenine dinucleotide (biotin-NAD). 1 μL of a dose response curve of each test compound was spotted in 384-well nickel-coated white microplates (Thermo) using a Mosquito (TTP Labtech). Reactions were performed in a 50 μL volume by adding 40 μL of PARP14 in assay buffer (20 mM HEPES pH==8, 100 mM NaCl, 0.1% bovine serum albumin, 2 mM DTT and 0.002%0 Tween20), incubating with test compound at 25° C. for 30 min, then adding 10 μL of biotin-NAD (Biolog). The final concentrations of PARP14 and biotin-NAD are 50 nM and 3 μM, respectively. Reactions proceeded at 25° C. for 3 h, then were quenched with 5 μL of 10 mM unmodified nicotinamide adenine dinucleotide (Sigma-Aldrich). The quenched reactions were washed 3 times with 100 μL of TBST wash buffer (50 mM Tris-HCl, 150 mM NaCl and 0.1% Tween20). Next, to the washed and dried plate was added 25 μL of DELFIA Europium-N1 streptavidin (Perkin Elmer) diluted in DELFIA assay buffer (Perkin Elmer). After a 30 min incubation at 25° C., the plate was washed 5 times with TBST wash buffer. Finally, 25 μL of DELFIA enhancement solution was added. After a 5 min incubation the plate was read on an Envision platereader equipped with a LANCE/DELFIA top mirror (Perkin Elmer) using excitation of 340 nm and emission of 615 nm to measure the amount of Europium present in each well, informing on the amount of biotin-NAD that was transferred in the automodification reaction.
[formula] where ex615cmpd is the emission from the compound treated well, ex615min is the emission from the rucaparib treated positive control well and ex615max is the emission from the DMSO treated negative control well.
The % inhibition values were plotted as a function of compound concentration and the following 4-parameter fit was applied to derive the IC50 values:
[formula] where top and bottom are normally allowed to float, but may be fixed at 100 or 0 respectively in a 3-parameter fit. The Hill Coefficient is normally allowed to float but may also be fixed at 1 in a 3-parameter fit. Y is the % inhibition and X is the compound concentration.

catalytic domain of human PARP14, sequence (Q460N5 1611-1801): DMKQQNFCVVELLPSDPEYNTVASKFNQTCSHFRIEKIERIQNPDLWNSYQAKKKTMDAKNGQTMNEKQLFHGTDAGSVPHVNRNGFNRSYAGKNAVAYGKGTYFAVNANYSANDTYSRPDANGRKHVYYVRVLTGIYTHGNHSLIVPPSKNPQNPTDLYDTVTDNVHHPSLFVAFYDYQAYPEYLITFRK

IC50	Structure (SMILES)
> 10000 nM	COc1ccc2nc(CSC3CCOCC3)[nH]c(=O)c2c1 [Example 4]
< 1000 nM	CC(=O)N[C@H]1CC[C@H](SCc2nc3cc(OCC4CCOC4)cc(F)c3c(=O)[nH]2)CC1 (stereo partly drawn) [Example 391]
1000 to 10000 nM	O=c1[nH]c(CSC2CCOCC2)nc2cc(Nc3ccccn3)ccc12 [Example 81, 7-(Pyridin-2-ylamino)-2-(((tetrahydro-2H-pyran-4-yl)thio)methyl)quinazolin-4(3H)-one]
< 1000 nM	CN1CC[C@H](CNc2cc3nc(CSC4CCOCC4)[nH]c(=O)c3c(F)c2F)[C@@H](F)C1 [Example 425]
< 1000 nM	O=c1[nH]c(CS[C@H]2CC[C@H](O)CC2)nc2cc(NC3CCCCC3)cc(F)c12 [Example 249, 7-(Cyclohexylamino)-5-fluoro-2-((((1r,4r)-4-hydroxycyclohexyl)thio)methyl)quinazolin-4(3H)-one]
< 1000 nM	O=c1[nH]c(CSC2CCS(=O)(=O)CC2)nc2cc(OCC3CCC3)cc(F)c12 [Example 304, 7-(cyclobutylmethoxy)-2-(((1,1-dioxidotetrahydro-2H-thiopyran-4-yl)thio)methyl)-5-fluoroquinazolin-4(3H)-one]
1000 to 10000 nM	Cc1cccc2c(=O)[nH]c(CSC3CCN(CCNC(=O)c4ccccn4)CC3)nc12 [Example 164, N-(2-(4-(((8-Methyl-4-oxo-3,4-dihydroquinazolin-2-yl)methyl)thio)piperidin-1-yl)ethyl)picolinamide]
> 10000 nM	N#Cc1cccc2c(=O)[nH]c(CSC3CCOCC3)nc12 [Example 28, 4-Oxo-2-(((tetrahydro-2H-pyran-4-yl)thio)methyl)-3,4-dihydroquinazoline-8-carbonitrile]
< 1000 nM	C[C@]1(O)CC[C@@H](SCc2nc3cc(OCC4CCOCC4)cc(F)c3c(=O)[nH]2)CC1 [Example 411]
< 1000 nM	O=c1[nH]c(CS[C@H]2CCNC[C@H]2F)nc2cc(NCC3CCC3)c(F)cc12 (relative stereo) [Example 303, 7-((Cyclobutylmethyl)amino)-6-fluoro-2-(((cis-3-fluoropiperidin-4-yl)thio)methyl)quinazolin-4(3H)-one hydrochloride]
< 1000 nM	O=c1[nH]c(CS[C@H]2CC[C@H](O)CC2)nc2cc(N[C@@H]3CCCOC3)c(F)c(F)c12 [Example 381]
> 10000 nM	CNC(=O)c1ccc2c(=O)[nH]c(CSC3CCOCC3)nc2c1 [Example 77, N-Methyl-4-oxo-2-(((tetrahydro-2H-pyran-4-yl)thio)methyl)-3,4-dihydro Quinazoline-7-carboxamide]
< 1000 nM	CO[C@H]1C[C@@H](Nc2cc3nc(CS[C@H]4CC[C@](C)(O)CC4)[nH]c(=O)c3c(F)c2F)C1 [Example 374]
1000 to 10000 nM	CC(=O)N1CCC(SCc2nc3c(C)cccc3c(=O)[nH]2)CC1 [Example 17, 2-(((1-Acetylpiperidin-4-yl)thio)methyl)-8-methylquinazolin-4(3H)-one]
< 1000 nM	CC(C)(C)CNc1cc2nc(CSC3CCOCC3)[nH]c(=O)c2c(F)c1F [Example 384]
1000 to 10000 nM	CC(=O)N1CCC(Nc2ccc3c(=O)[nH]c(CSC4CCOCC4)nc3c2)C1 (stereo not drawn) [Example 134, 7-((1-Acetylpyrrolidin-3-yl)amino)-2-(((tetrahydro-2H-pyran-4-yl)thio)methyl)quinazolin-4(3H)-one]

IC50	Structure (SMILES)
> 10000 nM	Cc1cccc2c(=O)[nH]c(CS[C@@H]3CCC[C@H](CN(C)C)C3)nc12 (relative stereo) [Example 72, 2-((((cis)-3-((Dimethylamino)methyl)cyclohexyl)thio)methyl)-8-methyl quinazolin-4(3H)-one Trifluoroacetate]
< 1000 nM	O=c1[nH]c(CSC2CCN(C3CS(=O)(=O)C3)CC2)nc2cc(NC3CCCC3)cc(F)c12 [Example 273, 7-(Cyclopentylamino)-2-(((1-(1,1-dioxidothietan-3-yl)piperidin-4-yl)thio)methyl)-5-fluoroquinazolin-4(3H)-one]
< 1000 nM	O=c1[nH]c(CS[C@H]2CC[C@@H](CO)CC2)nc2cc(Nc3ccccc3)ccc12 [Example 105, 2-(((cis-4-(Hydroxymethyl)cyclohexyl)thio)methyl)-7-(phenylamino) quinazolin-4(3H)-one]
< 1000 nM	O=c1[nH]c(CS[C@H]2CC[C@H](O)CC2)nc2cc(NC3CCC3)ccc12 [Example 194, 7-(cyclobutylamino)-2-((((1R,4R)-4-hydroxycyclohexyl)thio)methyl)quinazolin-4(3H)-one]
< 1000 nM	O=c1[nH]c(CSC2CCOCC2)nc2cc(OCC3CCN(CCC(F)(F)F)CC3)cc(F)c12 [Example 298, 5-Fluoro-2-(((tetrahydro-2H-pyran-4-yl)thio)methyl)-7-((1-(3,3,3-trifluoropropyl)piperidin-4-yl)methoxy)quinazolin-4(3H)-one]
< 1000 nM	O=c1[nH]c(CSC2CCCCC2)nc2cc(NC3CCCC3)cc(F)c12 [Example 215, 2-((Cyclohexylthio)methyl)-7-(cyclopentylamino)-5-fluoroquinazolin-4(3H)-one]
1000 to 10000 nM	NC[C@]1(F)CC[C@@H](SCc2nc3cc(OCC4CCC4)cc(F)c3c(=O)[nH]2)CC1 [Example 336]
< 1000 nM	CS(=O)(=O)N1CCC[C@@H](Nc2ccc3c(=O)[nH]c(CS[C@H]4CC[C@H](O)CC4)nc3c2)C1 [Example 267, 2-(((Trans-4-hydroxycyclohexyl)thio)methyl)-7-(((R)-1-(methylsulfonyl)piperidin-3-yl)amino)quinazolin-4(3H)-one]
< 1000 nM	CCC(=O)N[C@H]1CC[C@H](SCc2nc3cc(OCC4CC4)cc(F)c3c(=O)[nH]2)CC1 [Example 378]
1000 to 10000 nM	O=c1[nH]c(CS[C@H]2CC[C@@H](CO)CC2)nc2cc(Nc3cccnc3)ccc12 [Example 106, 2-(((cis-4-(Hydroxymethyl)cyclohexyl)thio)methyl)-7-(pyridin-3-ylamino) quinazolin-4(3H)-one]
< 1000 nM	O=c1[nH]c(CS[C@H]2CC[C@H](O)CC2)nc2cc(NC3CCCC3(F)F)cc(F)c12 (stereo partly drawn) [Example 350]
< 1000 nM	O=c1[nH]c(CSC2CCOCC2)nc2cc(SCC3CCOCC3)cc(F)c12 [Example 370]
1000 to 10000 nM	Cc1nn(C)cc1CN1CCC(SCc2nc3c(C)cccc3c(=O)[nH]2)CC1 [Example 144, 2-(((1-((1,3-Dimethyl-1H-pyrazol-4-yl)methyl)piperidin-4-yl)thio)methyl)-8-methylquinazolin-4(3H)-one trifluoroacetate]
> 10000 nM	O=c1[nH]c(CSC2CCOCC2)nc2cc(NC3CCCC3)cnc12 [Example 188, 7-(cyclopentylamino)-2-(((tetrahydro-2H-pyran-4-yl)thio)methyl)pyrido[3,2-d]pyrimidin-4(3H)-one]
< 1000 nM	Cc1cc(NC2CCCC2)cc2nc(CSC3CCOCC3)[nH]c(=O)c12 [Example 203, 7-(Cyclopentylamino)-5-methyl-2-(((tetrahydro-2H-pyran-4-yl)thio)methyl) quinazolin-4(3H)-one]

Structure (SMILES)	IC50
O=c1[nH]c(CS[C@@H]2CCNC[C@@H]2F)nc2cc(NC3CCCC3)cc(F)c12 [Example 213b, 7-(cyclopentylamino)-5-fluoro-2-((((3S,4R)-3-fluoropiperidin-4-yl)thio)methyl)quinazolin-4(3H)-one]	< 1000 nM
NC(=O)C[C@H]1CC[C@H](SCc2nc3cc(NC4CCCC4)cc(F)c3c(=O)[nH]2)CC1 [Example 286, 2-(Trans-4-(((7-(cyclopentylamino)-5-fluoro-4-oxo-3,4-dihydroquinazolin-2-yl)methyl)thio)cyclohexyl)acetamide]	< 1000 nM
Cc1cccc2c(=O)[nH]c(CS[C@H]3CC[C@@H](N)CC3)nc12 [Example 50, 2-(((cis-4-Aminocyclohexyl)thio)methyl)-8-methylquinazolin-4(3H)-one Trifluoroacetic Acid]	1000 to 10000 nM
NC[C@]1(F)CC[C@H](SCc2nc3cc(NC4CCCC4)cc(F)c3c(=O)[nH]2)CC1 [Example 244, 2-(((cis-4-(Aminomethyl)-4-fluorocyclohexyl)thio)methyl)-7-(cyclopentylamino)-5-fluoroquinazolin-4(3H)-one Trifluoroacetate]	< 1000 nM
O=c1[nH]c(CSC2CCNCC2)nc2cc(NCC3CCC3)c(F)cc12 [Example 289, 7-((Cyclobutylmethyl)amino)-6-fluoro-2-((piperidin-4-ylthio)methyl)quinazolin-4(3H)-one hydrochloride]	1000 to 10000 nM
